Results from article PMC9883826 (Scientific Reports, 2023).
Values after ≈ are worked out from the molar mass of the structure shown. “Also recorded” adds a separate entry of the source. Counter-ions that a name gives are not always drawn. Like-named read-outs stand apart in the source and are kept apart here.

Columns and labels:
DENV-2 (dengue virus-2) = conditions: cited from earlier work
MDCK cells = conditions: dog
[1] = system: influenza A/Egypt/NRC098/2019(H1N1); assay: microbe, parasite or virus in culture; format: cell-based, influenza A virus; conditions: for IC50: Influenza A virus, H1N1, MDCK
[2] = system: influenza A/chicken/Egypt/N12640A/2016(H5N1); assay: microbe, parasite or virus in culture; format: cell-based, influenza A virus
in vitro = conditions: dog
influenza A/H5N1 virus [3] = assay: microbe, parasite or virus in culture; format: cell-based; conditions: H5N1, read-out: Viral inhibition (%) Mean
influenza A/H5N1 virus [4] = assay: microbe, parasite or virus in culture; format: cell-based
influenza A/H1N1 virus = assay: microbe, parasite or virus in culture; format: cell-based; conditions: H1N1, read-out: Viral inhibition (%) Mean
influenza A/H5N1 virus [5] = assay: microbe, parasite or virus in culture; format: cell-based; remark: listed apart in the source
influenza A/H5N1 virus [6] = assay: microbe, parasite or virus in culture; format: cell-based; remark: listed apart in the source
HSV-1 = conditions: cited from earlier work
HSV-2 [7] = conditions: cited from earlier work
HSV-2 [8] = conditions: cited from earlier work; remark: listed apart in the source
[9] = system: severe acute respiratory syndrome coronavirus (SARS-CoV); conditions: cited from earlier work
[10] = in vivo; cited from earlier work
[11] = Influenza A virus, H5N1, MDCK, 72 h
[12] = Influenza A virus, H5N1, read-out: Viricidal (%) viral inhibition
[13] = Influenza A virus, H5N1, MDCK, read-out: PIC50 H5N1
[14] = Influenza A virus, H5N1, read-out: Viral replication (%) viral inhibition
[15] = Influenza A virus, H5N1, read-out: Viral adsorption (%) viral inhibition

COc1ccc2c3ccnc(C)c3n(C)c2c1 [9 N methylharmine]
EC50 (DENV-2 (dengue virus-2)): 3200 ± 600 nM

NC12CC3CC(CC(C3)C1)C2 [Amantadine HCl, reference compound]
CC50 (MDCK cells): 1103 µg/mL
Selectivity index (SI) [1]: 74.32
IC50 ([1]; 72 h): 14.9 µg/mL
Selectivity index (SI) [2]: 62.71
IC50 [2, 11]: 17.6 µg/mL
CC50 (in vitro): 1100 µg/mL

COc1cc2c(cc1OC)[C@@]13CCN4CC5=CCO[C@H]6CC(=O)N2[C@H]1[C@H]6[C@H]5C[C@H]43 [Brucine]
anti-influenza activity against avian influenza A/H5N1 virus (in words) [2]: poor or no antiviral potential activity
IC50 [2, 11]: > 10000 µg/mL
CC50 (in vitro): > 10000 µg/mL

CNC(=O)Oc1ccc2c(c1)[C@]1(C)CCN(C)[C@@H]1N2C [Eserine]
anti-influenza activity against human influenza A/H1N1 virus (in words) [1]: no antiviral activity
anti-influenza activity against avian influenza A/H5N1 virus (in words) [2]: poor or no antiviral potential activity
IC50 [2, 11]: > 10000 µg/mL
CC50 (in vitro): > 10000 µg/mL

COc1ccc2c3c([nH]c2c1)C(C)=NCC3 [Harmaline]
Selectivity index (SI) [1]: 8482
IC50 ([1]; 72 h): 0.056 µg/mL
IC50 ([1]; read-out: PIC50 H1N1): 20 nM
inhibition at 1 µg/mL (influenza A/H5N1 virus [3]): 72.6%
inhibition at 10 µg/mL (influenza A/H5N1 virus [3]): 87.7%
inhibition at 100 µg/mL (influenza A/H5N1 virus [3]): 94.2%
main stage of antiviral action: viricidal (in words) (influenza A/H5N1 virus [4]): direct cell-free viricidal effect
inhibition at 1 µg/mL (influenza A/H5N1 virus [4]; [12]): 91%
inhibition at 10 µg/mL (influenza A/H5N1 virus [4]; [12]): 96.7%
inhibition at 100 µg/mL (influenza A/H5N1 virus [4]; [12]): 98.6%
Selectivity index (SI) [2]: 138
IC50 [2, 11]: 3.42 µg/mL
IC50 [2, 13]: 28100 nM
CC50 (in vitro): 475 µg/mL (≈ 2.22 mM)
inhibition at 1 µg/mL (influenza A/H1N1 virus): 66.7%
inhibition at 10 µg/mL (influenza A/H1N1 virus): 77.8%
inhibition at 100 µg/mL (influenza A/H1N1 virus): 86.5%
inhibition at 1 µg/mL (influenza A/H5N1 virus [5]; [14]): 28.3%
inhibition at 10 µg/mL (influenza A/H5N1 virus [5]; [14]): 40.3%
inhibition at 100 µg/mL (influenza A/H5N1 virus [5]; [14]): 48.7%
inhibition at 1 µg/mL (influenza A/H5N1 virus [6]; [15]): 34%
inhibition at 10 µg/mL (influenza A/H5N1 virus [6]; [15]): 46.2%
inhibition at 100 µg/mL (influenza A/H5N1 virus [6]; [15]): 51.8%

CC1=NCCc2c1[nH]c1cc(O)ccc21 [Harmalol]
Selectivity index (SI) [1]: > 2.8*10^5
IC50 ([1]; 72 h): 0.035 µg/mL
IC50 ([1]; read-out: PIC50 H1N1): 20 nM
inhibition at 0.1 µg/mL (influenza A/H5N1 virus [3]): 54.7%
inhibition at 1 µg/mL (influenza A/H5N1 virus [3]): 73.3%
inhibition at 10 µg/mL (influenza A/H5N1 virus [3]): 86.4%
inhibition at 0.1 µg/mL (influenza A/H5N1 virus [4]; [12]): 41.5%
inhibition at 1 µg/mL (influenza A/H5N1 virus [4]; [12]): 50.9%
inhibition at 10 µg/mL (influenza A/H5N1 virus [4]; [12]): 58%
Selectivity index (SI) [2]: > 5*10^5
IC50 [2, 11]: 0.02 µg/mL
IC50 [2, 13]: 21 nM
CC50 (in vitro): > 10000 µg/mL
inhibition at 0.1 µg/mL (influenza A/H1N1 virus): 74.3%
inhibition at 1 µg/mL (influenza A/H1N1 virus): 79.6%
inhibition at 10 µg/mL (influenza A/H1N1 virus): 91.8%
main stage of antiviral action: viral replication (in words) (influenza A/H5N1 virus [5]): interference with the viral replication compartment
inhibition at 0.1 µg/mL (influenza A/H5N1 virus [5]; [14]): 87.5%
inhibition at 1 µg/mL (influenza A/H5N1 virus [5]; [14]): 96.9%
inhibition at 10 µg/mL (influenza A/H5N1 virus [5]; [14]): 98.7%
inhibition at 0.1 µg/mL (influenza A/H5N1 virus [6]; [15]): 60.3%
inhibition at 1 µg/mL (influenza A/H5N1 virus [6]; [15]): 74.5%
inhibition at 10 µg/mL (influenza A/H5N1 virus [6]; [15]): 82.1%

Cc1nccc2c1[nH]c1ccccc12 [Harmane]
EC50 (HSV-1): 4.90 µg/mL (≈ 0.0269 mM)
Selectivity index (SI) [1]: > 2.17*10^5
IC50 ([1]; 72 h): 0.033 µg/mL
IC50 ([1]; read-out: PIC50 H1N1): 18.2 nM
inhibition at 10 µg/mL (influenza A/H5N1 virus [3]): 65.5%
inhibition at 100 µg/mL (influenza A/H5N1 virus [3]): 74.4%
inhibition at 1000 µg/mL (influenza A/H5N1 virus [3]): 85%
inhibition at 10 µg/mL (influenza A/H5N1 virus [4]; [12]): 31.8%
inhibition at 100 µg/mL (influenza A/H5N1 virus [4]; [12]): 41.8%
inhibition at 1000 µg/mL (influenza A/H5N1 virus [4]; [12]): 82.1%
IC50 [2, 11]: 0.023 µg/mL
IC50 [2, 13]: 23 nM
CC50 (in vitro): 7180 µg/mL (≈ 39.4 mM)
inhibition at 10 µg/mL (influenza A/H1N1 virus): 55.1%
inhibition at 100 µg/mL (influenza A/H1N1 virus): 74.4%
inhibition at 1000 µg/mL (influenza A/H1N1 virus): 84.6%
main stage of antiviral action: viral replication (in words) (influenza A/H5N1 virus [5]): interference with the viral replication compartment
inhibition at 10 µg/mL (influenza A/H5N1 virus [5]; [14]): 83.3%
inhibition at 100 µg/mL (influenza A/H5N1 virus [5]; [14]): 97.5%
inhibition at 1000 µg/mL (influenza A/H5N1 virus [5]; [14]): 96.7%
EC50 (HSV-2 [7]): 71.8 µg/mL (≈ 0.394 mM)
inhibition at 10 µg/mL (influenza A/H5N1 virus [6]; [15]): 43.4%
inhibition at 100 µg/mL (influenza A/H5N1 virus [6]; [15]): 48.7%
inhibition at 1000 µg/mL (influenza A/H5N1 virus [6]; [15]): 61.4%

COc1ccc2c(c1)[nH]c1c(C)nccc12 [Harmine]
EC50 (HSV-2 [8]): 1470 nM
anti-influenza activity against avian influenza A/H5N1 virus (in words) [2]: poor or no antiviral potential activity; also recorded: no effect; also recorded: no anti-influenza activity
IC50 [2, 11]: > 10000 µg/mL
CC50 (in vitro): > 10000 µg/mL

CC[C@@H](CO)NC(=O)[C@@H]1C=C2c3cccc4[nH]cc(c34)C[C@H]2N(C)C1 [Methyl ergometrine]
anti-influenza activity against avian influenza A/H5N1 virus (in words) [2]: poor or no antiviral potential activity
IC50 [2, 11]: > 1000 µg/mL
CC50 (in vitro): 8230 µg/mL (≈ 24.2 mM)

c1ccc2c(c1)[nH]c1cnccc12 [Norharmane]
anti-influenza activity against avian influenza A/H5N1 virus (in words) [2]: poor or no antiviral potential activity; also recorded: no effect
IC50 [2, 11]: > 10000 µg/mL
CC50 (in vitro): > 10000 µg/mL

COC(=O)[C@H]1[C@H]2C[C@@H]3c4[nH]c5cc(OC)ccc5c4CCN3C[C@H]2C[C@@H](OC(=O)c2cc(OC)c(OC)c(OC)c2)[C@@H]1OC [Reserpine]
anti-influenza activity against human influenza A/H1N1 virus (in words) [1]: moderate anti-influenza potential
EC50 [9]: 3400 nM
Selectivity index (SI) [2]: > 33
anti-influenza activity against avian influenza A/H5N1 virus (in words) [2]: moderate anti-influenza activity
IC50 [2, 11]: 42.4 µg/mL
CC50 (in vitro): 1400 µg/mL (≈ 2.3 mM)

O=C1C[C@@H]2OCC=C3CN4CC[C@]56c7ccccc7N1[C@H]5[C@H]2[C@H]3C[C@H]46 [Strychnine Sulfate, Strychnine sulfate]
Selectivity index (SI) [1]: > 1.67*10^5
IC50 ([1]; 72 h): 0.06 µg/mL
inhibition at 1 µg/mL (influenza A/H5N1 virus [3]): 74.4%
inhibition at 10 µg/mL (influenza A/H5N1 virus [3]): 84%
inhibition at 100 µg/mL (influenza A/H5N1 virus [3]): 96.3%
inhibition at 1 µg/mL (influenza A/H5N1 virus [4]; [12]): 29.4%
inhibition at 10 µg/mL (influenza A/H5N1 virus [4]; [12]): 37%
inhibition at 100 µg/mL (influenza A/H5N1 virus [4]; [12]): 49.2%
IC50 [2]: 11.851 µg/mL
Selectivity index (SI) [2]: > 843
IC50 [2, 11]: 11.8 µg/mL
CC50 (in vitro): > 10000 µg/mL
inhibition at 1 µg/mL (influenza A/H1N1 virus): 65.5%
inhibition at 10 µg/mL (influenza A/H1N1 virus): 71.6%
inhibition at 100 µg/mL (influenza A/H1N1 virus): 87.4%
inhibition at 1 µg/mL (influenza A/H5N1 virus [5]; [14]): 19.4%
inhibition at 10 µg/mL (influenza A/H5N1 virus [5]; [14]): 27.3%
inhibition at 100 µg/mL (influenza A/H5N1 virus [5]; [14]): 42%
main stage of antiviral action: viral adsorption (in words) (influenza A/H5N1 virus [6]): hindering IAV adsorption to the host cell (MDCK) receptors
inhibition at 1 µg/mL (influenza A/H5N1 virus [6]; [15]): 90.1%
inhibition at 10 µg/mL (influenza A/H5N1 virus [6]; [15]): 99.5%
inhibition at 100 µg/mL (influenza A/H5N1 virus [6]; [15]): 99%

CC(=O)N[C@H]1[C@H]([C@H](O)[C@H](O)CO)OC(C(=O)O)=C[C@@H]1N=C(N)N [Zanamivir, reference compound]
Selectivity index (SI) [1]: > 3.4*10^4
IC50 ([1]; 72 h): 0.291 µg/mL
Selectivity index (SI) [2]: > 1.26*10^5
IC50 [2, 11]: 0.079 µg/mL
CC50 (in vitro): > 10000 µg/mL

O=C1C[C@@H]2OCC=C3CN4CC[C@]56c7ccccc7N1[C@H]5[C@H]2[C@H]3C[C@H]46 [strychnine]
high dose causing muscle contraction and convulsions that can lead to respiratory paralysis [10]: 1.5 mg/kg
